Consider 3 molecules from patent publication US9346759B2, “Polymorphic crystal forms of 5-(2-{[6-(2,2-difluoro-2-phenylethoxy)hexyl]amino}-1-(R)-hydroxyethyl)-8-hydroxyquinolin-2(1H)-one, heminapadisytlate as agonist of the β2 adrenergic receptor” (ALMIRALL, S.A., priority 2012, dated 2016).

A short description of the series: Aerodynamic assessment of fine particles of the inhalation powder composition (modified Anderson Cascade Impactor, Genuair inhaler). Format: physicochemical. Particulars: dry powder blend of the polymorph with lactose carrier, no additive material, ACI 60 L/min, fine particles <5 μm, HPLC. The text has this: The process for manufacturing the pharmaceutical composition comprising a polymorphic salt of compound (I) (Type α, Type β or Hydrate) and a carrier is as follows: • 1. 20% by weight of lactose used as a carrier was blended with one polymorph (Type α, Type β or Hydrate). The resulting mixture was sieved and mixed again. • 2. The remaining 80% by weight of lactose was sieved and added to the mixture of Step 1. The whole mixture was blended, sieved and blended again resulting in the final inhalation powder blend.
The test on the aerodynamic assessment of the fine particles (FPD<5 μm) of the inhalation powder composition is carried out in combination with the Genuair® inhaler. The Fine Particle Fraction of the three formulations was calculated on basis of the principles of the aerodynamic assessment of fine particles according to the Current European pharmacopoeia (Ph. Eur. Chapter 2.9.18) and USP<601> by the aid of aerodynamic impactor analyses using a modified Anderson Cascade Impactor (ACI), 60 L/min-configuration including pre-separator, stage-1, -0, and stage 1-7 (filter stage). The content of the active ingredient on each stage of the impactor is determined my means of HPLC.
The fine particle dose (FPD<5 μm) is calculated based on Ph. Eur. Chapter 2.9.18 and USP<601> by point to point interpolation per dosage. […]
To obtain the Fine Particle Dose, the cumulative percent value (y-value) at which the line of data plot crosses 5 μm mark is determined. […] FPD [μg]=yFPD·F/100% • FPD=Fine particle dose<5 μm of the active ingredient per dosage [μg]. • yFPD=y-value of cumulative percentage of mass at a particle size of 5 μm evaluated by linear point to point interpolation [%]. • F=sum of mass on stage-1-stage 7 (filter) per dosage [μg].
The Fine Particle Fraction (FPF) is the percentage of the emitted dose that the Fine Particel Dose represents and is calculated as follows: FPF [%]=(FPD [μg]/Total sum [μg])*100 • Total sum=the amount of drug substance in the respective impactor (Adapter-Filter).

Consider `O=c1ccc2c([C@@H](O)CNCCCCCCOCC(F)(F)c3ccccc3)ccc(O)c2[nH]1` [Comparative Example, 5-(2-{[6-(2,2-difluoro-2-phenylethoxy)hexyl]amino}-1(R)-hydroxyethyl)-8-hydroxyquinolin-2(1H)-one, heminapadisylate, reference compound], for which the “FPF (%)” value was 42.2%.

In the case of `O=c1ccc2c([C@@H](O)CNCCCCCCOCC(F)(F)c3ccccc3)ccc(O)c2[nH]1` [Polymorph Hydrate, 5-(2-{[6-(2,2-difluoro-2-phenylethoxy)hexyl]amino}-1(R)-hydroxyethyl)-8-hydroxyquinolin-2(1H)-one, heminapadisylate, hemihydrate], the “FPF (%)” value (hemihydrate) was determined as 49.8%.

Consider `O=c1ccc2c([C@@H](O)CNCCCCCCOCC(F)(F)c3ccccc3)ccc(O)c2[nH]1` [Polymorph Type β, 5-(2-{[6-(2,2-difluoro-2-phenylethoxy)hexyl]amino}-1(R)-hydroxyethyl)-8-hydroxyquinolin-2(1H)-one, heminapadisylate], for which the “FPF (%)” value is 49.3%.
